We go through 23 molecules from patent publication US20250115591A1, “NOVEL SULFONAMIDE CARBOXAMIDE COMPOUNDS” (INFLAZOME LIMITED, priority 2017, published 2025).

Counter-ions that a name gives are not always drawn.

Broadly, the IC50 is the concentration that inhibits the measured activity by half.

This assay deals with NLRP3 (Homo sapiens (Human), UniProt Q96P20). Kind of assay: THP-1 cells pyroptosis assay (LPS + nigericin, resazurin read-out). The assay is classed as cell-based. The note with it: 1 μg/ml LPS, 5 μM nigericin. The procedure: THP-1 cells (ATCC #TIB-202) were grown in RPMI containing L-glutamine (Gibco 15 #11835) supplemented with 1 mM sodium pyruvate (Sigma #S8636) and penicillin (100 units/ml)/streptomycin (0.1 mg/ml) (Sigma #P4333) in 10% Fetal Bovine Serum (FBS) (Sigma #F0804). The cells were routinely passaged and grown to confluency (˜10^6 cells/ml). On the day of the experiment, THP-1 cells were harvested and resuspended into RPMI medium (without FBS). The cells were then counted and viability (>90%) checked by Trypan blue (Sigma #T8154). Appropriate dilutions were made to give a concentration of 625,000 cells/ml. To this diluted cell solution was added LPS (Sigma #[4524) to give a 1 μg/ml Final Assay Concentration (FAC). 40μ of the final preparation was aliquoted into each well of a 96-well plate. The plate thus prepared was used for compound screening.
NLRP3, sequence (Q96P20 whole entry): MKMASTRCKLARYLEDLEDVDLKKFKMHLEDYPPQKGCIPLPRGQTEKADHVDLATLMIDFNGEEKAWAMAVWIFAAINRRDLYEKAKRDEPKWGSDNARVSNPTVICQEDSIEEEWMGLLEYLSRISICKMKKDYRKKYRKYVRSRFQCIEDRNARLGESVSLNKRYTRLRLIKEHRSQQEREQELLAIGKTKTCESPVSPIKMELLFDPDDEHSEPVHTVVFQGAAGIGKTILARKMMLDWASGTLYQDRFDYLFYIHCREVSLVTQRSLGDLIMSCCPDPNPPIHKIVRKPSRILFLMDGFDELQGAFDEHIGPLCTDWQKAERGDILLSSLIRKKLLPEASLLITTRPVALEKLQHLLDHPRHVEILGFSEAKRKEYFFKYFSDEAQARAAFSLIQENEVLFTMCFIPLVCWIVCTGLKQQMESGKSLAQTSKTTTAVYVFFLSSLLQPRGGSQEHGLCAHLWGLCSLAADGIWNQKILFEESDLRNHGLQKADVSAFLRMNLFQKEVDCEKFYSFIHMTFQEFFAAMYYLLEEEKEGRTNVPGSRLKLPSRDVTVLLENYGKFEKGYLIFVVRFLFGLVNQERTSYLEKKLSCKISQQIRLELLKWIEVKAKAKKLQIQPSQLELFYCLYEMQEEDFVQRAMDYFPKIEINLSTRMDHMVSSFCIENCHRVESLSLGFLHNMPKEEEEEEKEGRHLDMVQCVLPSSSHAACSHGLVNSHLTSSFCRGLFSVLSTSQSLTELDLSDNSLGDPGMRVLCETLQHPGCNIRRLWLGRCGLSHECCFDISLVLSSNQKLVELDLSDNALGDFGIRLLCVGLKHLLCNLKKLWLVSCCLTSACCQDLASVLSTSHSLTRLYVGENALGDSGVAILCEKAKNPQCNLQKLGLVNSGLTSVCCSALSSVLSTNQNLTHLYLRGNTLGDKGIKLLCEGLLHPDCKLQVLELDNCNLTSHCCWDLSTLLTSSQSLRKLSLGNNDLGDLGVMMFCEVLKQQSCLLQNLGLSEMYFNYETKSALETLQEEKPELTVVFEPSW
The following method step-by-step assay was followed for compound screening. • 1. Seed THP-1 cells (25,000 cells/well) containing 1.0 μg/ml LPS in 40μ of RPMI medium (without FBS) in 96-well, black walled, clear bottom cell culture plates coated with poly-D-lysine (VWR #734-0317) • 2. Add 5 μl compound (8 points half-log dilution, with […]) or vehicle (DMSO 0.1% FAC) to the appropriate wells • 3. Incubate for 3 hrs at 37° C. and 5% CO2 • 4. Add 5 μl nigericin (Sigma #N7143) (FAC 5 μM) to all wells • 5. Incubate for 1 hr at 37° C. and 5% CO2 • 6. At the end of the incubation period, spin plates at 300×g for 3 mins and remove supernatant • 7. Then add 50 μl of resazurin (Sigma #R7017) (FAC 100 μM resazurin in RPMI medium without FBS) and incubate plates for a further 1-2 hrs at 37° C. and 5% CO2 • 8. Plates were read in an Envision reader at Ex 560 nm and Em 590 nm • 9. IC50 data is fitted to a non-linear regression equation (log inhibitor vs response-variable slope 4-parameters)
A general note: Alamar Blue is a resazurin reagent that responds to reducing activity.
Turning to `CN1CC2(CC(S(=O)(=O)NC(=O)Nc3c4c(cc5c3CCC5)CCC4)C2)C1` [Example 64, N-((1,2,3,5,6,7-Hexahydro-s-indacen-4-yl)carbamoyl)-2-methyl-2-azaspiro[3.3]heptane-6-sulfonamide, potassium salt], the IC50 was in the range of 1000 to 10000 nM.

With `CCN1CC(S(=O)(=O)NC(=O)Nc2c3c(cc4c2CCC4)CCC3)Cc2ccccc21` (centres unmarked) [Example 66, 1-Ethyl-N-((1,2,3,5,6,7-hexahydro-s-indacen-4-yl)carbamoyl)-1,2,3,4-tetrahydroquinoline-3-sulfonamide, potassium salt], the IC50 was under 1000 nM.

For the molecule `O=C(Nc1c2c(cc3c1CCC3)CCC2)NS(=O)(=O)C1CCN(CC(F)(F)F)CC1` [Example 67, N-((1,2,3,5,6,7-Hexahydro-s-indacen-4-yl)carbamoyl)-1-(2,2,2-trifluoroethyl)piperidine-4-sulfonamide, potassium salt], the IC50 is 1000 to 10000 nM.

Regarding `CC(C)N1CCC(S(=O)(=O)NC(=O)Nc2c3c(cc4c2CCC4)CCC3)C1=O` (centres unmarked) [Example 68, N-((1,2,3,5,6,7-Hexahydro-s-indacen-4-yl)carbamoyl)-1-isopropyl-2-oxopyrrolidine-3-sulfonamide, potassium salt], the IC50 is under 1000 nM.

As for `CCN1CCC(N2CC(S(=O)(=O)NC(=O)Nc3c4c(cc5c3CCC5)CCC4)C2)CC1` [Example 73, 1-(1-Ethylpiperidin-4-yl)-N-((1,2,3,5,6,7-hexahydro-s-indacen-4-yl)carbamoyl)azetidine-3-sulfonamide, potassium salt], the concentration for half-maximal inhibition (IC50) was 1000 to 10000 nM.

Turning to `CC(C)(C)OC(=O)N1CC(S(=O)(=O)NC(=O)Nc2c3c(cc4c2CCC4)CCC3)C1` [Example 77, tert-Butyl 3-(N-((1,2,3,5,6,7-hexahydro-s-indacen-4-yl)carbamoyl)sulfamoyl)azetidine-1-carboxylate, potassium salt], the IC50 lay in the range of 1000 to 10000 nM.

In the case of `CC(=O)N1CC(N2CCC(S(=O)(=O)NC(=O)Nc3c4c(cc5c3CCC5)CCC4)CC2)C1` [Example 79, 1-(1-Acetylazetidin-3-yl)-N-((1,2,3,5,6,7-hexahydro-s-indacen-4-yl)carbamoyl)piperidine-4-sulfonamide, potassium salt], the IC50 was 1000 to 10000 nM.

Consider `CN1CC(N2CCC(S(=O)(=O)NC(=O)Nc3c4c(cc5c3CCC5)CCC4)CC2)C1` [Example 80, N-((1,2,3,5,6,7-Hexahydro-s-indacen-4-yl)carbamoyl)-1-(1-methylazetidin-3-yl)piperidine-4-sulfonamide, potassium salt], for which the IC50 lay within 1000 to 10000 nM.

With `CCC(CC)N1CCC(S(=O)(=O)NC(=O)Nc2c3c(cc4c2CCC4)CCC3)C1` (centres unmarked) [Example 81, N-((1,2,3,5,6,7-Hexahydro-s-indacen-4-yl)carbamoyl)-1-(pentan-3-yl)pyrrolidine-3-sulfonamide, potassium salt], the IC50 was in the range of 1000 to 10000 nM.

In the case of `CC(C)(O)CN1CC(S(=O)(=O)NC(=O)Nc2c3c(cc4c2CCC4)CCC3)C1` [Example 84, N-((1,2,3,5,6,7-Hexahydro-s-indacen-4-yl)carbamoyl)-1-(2-hydroxy-2-methylpropyl)azetidine-3-sulfonamide, potassium salt], the IC50 is under 1000 nM.

For `O=C(Nc1c2c(cc3c1CCC3)CCC2)NS(=O)(=O)C1CN(C(CF)CF)C1` [Example 86, 1-(1,3-Difluoropropan-2-yl)-N-((1,2,3,5,6,7-hexahydro-s-indacen-4-yl)carbamoyl)azetidine-3-sulfonamide, potassium salt], the IC50 fell in the range of 1000 to 10000 nM.

Turning to `COCCN1CC(S(=O)(=O)NC(=O)Nc2c3c(cc4c2CCC4)CCC3)C1` [Example 88, N-((1,2,3,5,6,7-Hexahydro-s-indacen-4-yl)carbamoyl)-1-(2-methoxyethyl)azetidine-3-sulfonamide, potassium salt], the IC50 is under 1000 nM.

As for `O=C(Nc1c2c(cc3c1CCC3)CCC2)NS(=O)(=O)C1CN(CC2CCCCC2)C1` [Example 89, 1-(Cyclohexylmethyl)-N-((1,2,3,5,6,7-hexahydro-s-indacen-4-yl)carbamoyl)azetidine-3-sulfonamide, potassium salt], the half-inhibitory concentration (IC50) lay in the range of 1000 to 10000 nM.

Consider `CC(=N)N1CC(S(=O)(=O)NC(=O)Nc2c3c(cc4c2CCC4)CCC3)C1` [Example 100, N-((1,2,3,5,6,7-Hexahydro-s-indacen-4-yl)carbamoyl)-1-(1-iminoethyl)azetidine-3-sulfonamide, potassium salt], for which the half-maximal inhibitory concentration (IC50) fell in the range of 1000 to 10000 nM.

Take `CN(C)CCN1CC(S(=O)(=O)NC(=O)Nc2c3c(cc4c2CCC4)CCC3)C1` [Example 102, 1-(2-(Dimethylamino)ethyl)-N-((1,2,3,5,6,7-hexahydro-s-indacen-4-yl)carbamoyl)azetidine-3-sulfonamide, potassium salt]: the half-inhibitory concentration (IC50) was in the range of 1000 to 10000 nM.

As for `O=C(Nc1c2c(cc3c1CCC3)CCC2)NS(=O)(=O)C1CN(Cc2ccccn2)C1` [Example 104, N-((1,2,3,5,6,7-Hexahydro-s-indacen-4-yl)carbamoyl)-1-(pyridin-2-ylmethyl)azetidine-3-sulfonamide, potassium salt], the IC50 is under 1000 nM.

Turning to `CSCCN1CC(S(=O)(=O)NC(=O)Nc2c3c(cc4c2CCC4)CCC3)C1` [Example 107, N-((1,2,3,5,6,7-Hexahydro-s-indacen-4-yl)carbamoyl)-1-(2-(methylthio)ethyl)azetidine-3-sulfonamide, potassium salt], the 50% inhibitory concentration (IC50) was under 1000 nM.

On to `CN1CC(N2CC(S(=O)(=O)NC(=O)Nc3c4c(cc5c3CCC5)CCC4)C2)C1` [Example 110, N-((1,2,3,5,6,7-Hexahydro-s-indacen-4-yl)carbamoyl)-1′-methyl-[1,3′-biazetidine]-3-sulfonamide, potassium salt], for which the half-inhibitory concentration (IC50) was 1000 to 10000 nM.

For `C#CCCC1(CCN2CC(S(=O)(=O)NC(=O)Nc3c4c(cc5c3CCC5)CCC4)C2)N=N1` [Example 111, 1-(2-(3-(But-3-yn-1-yl)-3H-diazirin-3-yl)ethyl)-N-((1,2,3,5,6,7-hexahydro-s-indacen-4-yl)carbamoyl)azetidine-3-sulfonamide, potassium salt], the IC50 was in the range of 1000 to 10000 nM.

For the molecule `O=C(Nc1c2c(cc3c1CCC3)CCC2)NS(=O)(=O)C1CN(C2COC2)C1` [Example 116, N-((1,2,3,5,6,7-Hexahydro-s-indacen-4-yl)carbamoyl)-1-(oxetan-3-yl)azetidine-3-sulfonamide, potassium salt], the half-maximal inhibitory concentration (IC50) fell in the range of 1000 to 10000 nM.

As to `O=C(Nc1c2c(cc3c1CCC3)CCC2)NS(=O)(=O)C1CN(C2C[S+]([O-])C2)C1` (centres unmarked) [Example 117, N-((1,2,3,5,6,7-Hexahydro-s-indacen-4-yl)carbamoyl)-1-(1-oxidothietan-3-yl)azetidine-3-sulfonamide, potassium salt], the IC50 is under 1000 nM.

For the molecule `CC1CC(N2CC(S(=O)(=O)NC(=O)Nc3c4c(cc5c3CCC5)CCC4)C2)C1` (centres unmarked) [Example 118, N-((1,2,3,5,6,7-Hexahydro-s-indacen-4-yl)carbamoyl)-1-(3-methylcyclobutyl)azetidine-3-sulfonamide, potassium salt], the concentration for half-maximal inhibition (IC50) was under 1000 nM.

In the case of `CC1(C)CC(N2CC(S(=O)(=O)NC(=O)Nc3c4c(cc5c3CCC5)CCC4)C2)C1` [Example 119, 1-(3,3-Dimethylcyclobutyl)-N-((1,2,3,5,6,7-hexahydro-s-indacen-4-yl)carbamoyl)azetidine-3-sulfonamide, potassium salt], the IC50 lay in the range of 1000 to 10000 nM.
